Measurements taken from BindingDB's records for doi:10.1021/jm00172a010 (Centre De Recherches De Vitry, 1990).

What was measured:
[1] = molecular target: T1, Polyunsaturated fatty acid 5-lipoxygenase (Rattus norvegicus, UniProt P12527); assay: In vitro inhibitory activity against 5-Lipoxygenase in rat by Peritoneal 5-lipoxygenase assay
T1 sequence (P12527 whole entry): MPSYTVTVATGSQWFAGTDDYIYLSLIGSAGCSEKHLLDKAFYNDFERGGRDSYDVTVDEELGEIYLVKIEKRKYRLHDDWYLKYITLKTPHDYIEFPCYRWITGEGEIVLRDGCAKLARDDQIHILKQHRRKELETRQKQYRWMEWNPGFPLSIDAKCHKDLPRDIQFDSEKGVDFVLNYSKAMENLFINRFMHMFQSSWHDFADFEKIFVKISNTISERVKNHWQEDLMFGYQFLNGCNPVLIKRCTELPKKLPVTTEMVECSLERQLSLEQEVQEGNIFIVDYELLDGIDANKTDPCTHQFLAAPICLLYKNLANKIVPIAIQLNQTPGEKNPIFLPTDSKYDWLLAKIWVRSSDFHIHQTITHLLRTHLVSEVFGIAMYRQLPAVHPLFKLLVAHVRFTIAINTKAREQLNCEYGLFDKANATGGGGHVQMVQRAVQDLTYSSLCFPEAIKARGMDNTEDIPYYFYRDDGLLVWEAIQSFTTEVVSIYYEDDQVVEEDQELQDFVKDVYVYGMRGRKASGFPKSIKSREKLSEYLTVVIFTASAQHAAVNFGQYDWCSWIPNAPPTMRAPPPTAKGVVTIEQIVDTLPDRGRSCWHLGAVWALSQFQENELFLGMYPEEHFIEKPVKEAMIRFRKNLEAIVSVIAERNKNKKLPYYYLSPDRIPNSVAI

[2] = molecular target: T1, Polyunsaturated fatty acid 5-lipoxygenase; assay: In vitro inhibition of 5-lipoxygenase in rat (peritoneal assay)

| IC50 [1] [µM] | IC50 [2] [µM] | Compound |
| --- | --- | --- |
|  | 3 | CCOC(=O)C(=CCC(=O)C(=O)c1ccccc1)Sc1ccccc1 |
